Assays:
[1] = target: Galectin-3 (Homo sapiens (Human), UniProt P17931); test: Fluorescence anisotropy assay with high-affinity probe (SY), 50 nM galectin-3, 100 nM albumin; format: binding
Procedure: (§1) 100 nM albumin was included as a carrier to prevent protein loss at such low concentration of galectin.

[2] = target: Galectin-1 (Homo sapiens (Human), UniProt P09382); test: Fluorescence anisotropy assay, compound as inhibitor of galectin / fluorescein tagged saccharide probe interaction; format: binding
Procedure: as §1

[3] = target: galectins; conditions: all galectins; reviewed by Leffler, 2001 and Leffler et al., 2004; cited from earlier work

Sequence of Galectin-3 (P17931 whole entry): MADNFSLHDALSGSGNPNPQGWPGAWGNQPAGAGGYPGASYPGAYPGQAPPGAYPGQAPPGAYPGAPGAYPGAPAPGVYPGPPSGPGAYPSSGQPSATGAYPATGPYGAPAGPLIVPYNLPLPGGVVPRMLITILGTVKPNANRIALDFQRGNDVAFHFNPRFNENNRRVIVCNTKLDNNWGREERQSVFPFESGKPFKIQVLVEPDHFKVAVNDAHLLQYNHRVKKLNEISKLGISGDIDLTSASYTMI
Sequence of Galectin-1 (P09382 whole entry): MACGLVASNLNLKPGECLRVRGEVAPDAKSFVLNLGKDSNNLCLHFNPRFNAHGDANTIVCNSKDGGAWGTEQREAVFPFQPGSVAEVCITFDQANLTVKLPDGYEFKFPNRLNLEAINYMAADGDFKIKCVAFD

Row | Structure (SMILES) | Kd ([1]; Experimental Section 2) [µM] | Kd ([2]; Experimental Section 2) [µM] | Kd ([1]; Experimental Section 1) [µM] | Kd ([2]; Experimental Section 1) [µM] | Kd [3] [µM]
1 | OCC1O[C@@H](SC2O[C@H](CO)C(O)C(n3cc(-c4ccc(F)c(F)c4)nn3)[C@H]2O)C(O)[C@@H](n2cc(-c3ccc(F)c(F)c3)nn2)[C@H]1O (stereo partly drawn) [Example 3a, 3,3′-dideoxy-3,3′-di-[4-(3,4-difluorophenyl)-1H-1,2,3-triazol-1-yl]-1,1′-sulfanediyl-di-β-D-galactopyranoside] | 0.003 | 0.078 | – | – | –
2 | OCC1O[C@@H](SC2O[C@H](CO)C(O)C(n3cc(-c4cc(F)c(F)c(F)c4)nn3)[C@H]2O)C(O)[C@@H](n2cc(-c3cc(F)c(F)c(F)c3)nn2)[C@H]1O (stereo partly drawn) [Example 3b, 3,3′-bisdeoxy-3,3′-bis-[4-(3,4,5-trifluorophenyl)-1H-1,2,3-triazol-1-yl]-1,1′-sulfanediyl-di-β-D-galactopyranoside] | 0.001 | 0.079 | – | – | –
3 | OCC1O[C@@H](SC2O[C@H](CO)C(O)C(n3cc(-c4cc(F)cc(F)c4)nn3)[C@H]2O)C(O)[C@@H](n2cc(-c3cc(F)cc(F)c3)nn2)[C@H]1O (stereo partly drawn) [Example 3c, 3,3′-bisdeoxy-3,3′-bis-[4-(3,5-difluorophenyl)-1H-1,2,3-triazol-1-yl]-1,1′-sulfanediyldi-β-D-galactopyranoside] | 0.002 | 0.11 | – | – | –
4 | O=C(NC1C(O)C(CO)OC(SC2OC(CO)C(O)C(n3cc(-c4cccc(F)c4)nn3)C2O)C1O)c1c2ccccc2cc2ccccc12 [Example S20a, 3-(9-anthracenecarboxamide)-3,3′-Dideoxy-3-[4-(3-fluorophenyl)-1H-1,2,3-triazol-1-yl]-1,1′-sulfanediyl-di-β-D-galactopyranoside] | – | – | 0.064 | 0.38 | –
5 | O=C(NC1C(O)C(CO)OC(SC2OC(CO)C(O)C(n3cc(-c4cccc(F)c4)nn3)C2O)C1O)c1ccc2cc3ccccc3cc2c1 [Example S20b, 3-(2-anthracenecarboxamide)-3,3′-Dideoxy-3-[4-(3-fluorophenyl)-1H-1,2,3-triazol-1-yl]-1,1′-sulfanediyl-di-β-D-galactopyranoside] | – | – | 0.14 | 0.49 | –
6 | OC[C@H]1O[C@@H](O[C@H]2[C@H](O)[C@@H](O)C(O)O[C@@H]2CO)[C@H](O)[C@@H](O)[C@H]1O (some centres unmarked) [lactose] | – | – | – | – | 500 to 1000

Continued, in another order:

Row | Kd ([1]; Experimental Section 2) [µM] | Kd ([2]; Experimental Section 2) [µM] | Kd ([1]; Experimental Section 1) [µM] | Kd ([2]; Experimental Section 1) [µM] | Structure (SMILES) | Kd [3] [µM]
7 | – | – | 0.028 | 0.32 | O=c1oc2ccc(F)c(F)c2cc1COC1C(O)[C@@H](CO)OC(S[C@@H]2OC(CO)[C@H](O)[C@H](n3cc(-c4cccc(F)c4)nn3)C2O)[C@@H]1O (stereo partly drawn) [Example S8a, 3′-Deoxy-3-O-[(5,6-difluoro-2-oxo-3-chromenyl)methyl]-3′-[4-(3-fluorophenyl)-1H-1,2,3-triazol-1-yl]-1,1′-sulfanediyl-di-β-D-galactopyranoside] | –
8 | – | – | 0.002 | 0.48 | O=c1oc2ccc(F)c(F)c2cc1COC1C(O)[C@@H](CO)OC(S[C@@H]2OC(CO)[C@H](O)[C@H](n3cc(-c4cc(F)c(F)c(F)c4)nn3)C2O)[C@@H]1O (stereo partly drawn) [Example S8b, 3′-Deoxy-3-O-[(5,6-difluoro-2-oxo-3-chromenyl)methyl]-3′-[4-(3,4,5-trifluorophenyl)-1H-1,2,3-triazol-1-yl]-1,1′-sulfanediyl-di-β-D-galactopyranoside] | –
9 | – | – | 0.072 | 1.2 | CCCCNC(=O)c1cn([C@@H]2C(O)[C@H](SC3O[C@H](CO)C(O)C(OCc4cc5c(F)c(F)ccc5oc4=O)[C@H]3O)OC(CO)[C@@H]2O)nn1 (stereo partly drawn) [Example S8c, 3′-{4-[(Butylamino)carbonyl]-1H-1,2,3-triazol-1-yl}-3′deoxy-3-O-[(5,6-difluoro-2-oxo-3-chromenyl)methyl]-1,1′-sulfanediyl-di-β-D-galactopyranoside] | –
10 | – | – | 0.001 | 0.077 | CCCCNC(=O)c1cn(C2C(O)[C@@H](CO)OC(S[C@@H]3OC(CO)[C@H](O)[C@H](n4cc(-c5cc(F)c(F)c(F)c5)nn4)C3O)[C@@H]2O)nn1 (stereo partly drawn) [Example S11, 3-{4-[(Butylamino)carbonyl]-1H-1,2,3-triazol-1-yl}-3,3′-dideoxy-3′-[4-(3,4,5-trifluorophenyl)-1H-1,2,3-triazol-1-yl]-1,1′-sulfanediyl-di-β-D-galactopyranoside] | –
11 | – | – | 0.007 | 0.09 | COc1c(F)c(F)c(C(=O)NC2C(O)C(CO)OC(SC3OC(CO)C(O)C(n4cc(-c5cccc(F)c5)nn4)C3O)C2O)c(F)c1F [Example S16, 3,3′-Dideoxy-3′-[4-(3-fluorophenyl)-1H-1,2,3-triazol-1-yl]-3-(4-methoxy-2,3,5,6-tetrafluoro-benzamido)-1′-sulfanediyl-di-β-D-galactopyranoside] | –
12 | – | – | 0.003 | 0.066 | OCC1O[C@@H](SC2O[C@H](CO)C(O)C(n3cc(-c4ccccc4)nn3)[C@H]2O)C(O)[C@@H](n2cc(-c3cc(F)c(F)c(F)c3)nn2)[C@H]1O (stereo partly drawn) [Example S21, 3,3′-Dideoxy-3-[4-(3,4,5-trifluorophenyl)-1H-1,2,3-triazol-1-yl]-3′-[4-phenyl-1H-1,2,3-triazol-1-yl]-1,1′-sulfanediyl-di-β-D-galactopyranoside] | –
